# Results: PubChem BioAssay (NCI)
#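 Protocol summary: plate cells (96-well), add compound at 5 concentrations, incubate 48 h, interpolate endpoints linearly. Here, GI50 denotes the concentration required for 50% inhibition of growth. TGI is the concentration that stops growth completely.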
# Columns and labels:
# Test in all cases: growth of human tumour cells (NCI), 48 h
# [1] = system: SF-295 CNS
# [2] = system: U251 CNS
# [3] = system: NCI-H23 lung
# [4] = system: 786-0 renal
# [5] = system: DU-145 prostate
# [6] = system: SK-OV-3 ovarian
# [7] = system: OVCAR-5 ovarian
# [8] = system: SNB-19 CNS
# [9] = system: SK-MEL-5 melanoma
# [10] = system: KM12 colon
# [11] = system: NCI-H460 lung
# [12] = system: OVCAR-4 ovarian
# [13] = system: HT29 colon
# [14] = system: HCC-2998 colon
# [15] = system: IGROV1 ovarian
# [16] = system: HCT-15 colon
# [17] = system: MCF7 breast
# [18] = system: PC-3 prostate
# [19] = system: A549 NSCLC
# [20] = system: SF-268 CNS
# [21] = system: NCI-H522 lung
# [22] = system: RXF 393 renal
# [23] = system: LOX IMVI melanoma
# [24] = system: NCI/ADR-RES ovarian
# [25] = system: CCRF-CEM leukemia
# [26] = system: M14 melanoma
# [27] = system: MDA-MB-231 breast
# [28] = system: UACC-62 melanoma
# [29] = system: NCI-H226 lung
# [30] = system: EKVX NSCLC
# [31] = system: A498 renal
# [32] = system: ACHN renal
# [33] = system: T-47D breast
# [34] = system: RPMI-8226 leukemia
# [35] = system: HL-60(TB) leukemia
# [36] = system: UO-31 renal
# [37] = system: HOP-62 NSCLC
# [38] = system: TK-10 renal
# [39] = system: MOLT-4 leukemia
# [40] = system: OVCAR-8 ovarian
# [41] = system: HCT-116 colon
# [42] = system: UACC-257 melanoma
# [43] = system: SNB-75 CNS
# [44] = system: MALME-3M melanoma
# [45] = system: K-562 leukemia
# [46] = system: CAKI-1 renal
# [47] = system: SK-MEL-2 melanoma
# [48] = system: SR leukemia
# [49] = system: BT-549 breast
# [50] = system: HS 578T breast
# [51] = system: MDA-MB-435
# [52] = system: HOP-92 NSCLC
# [53] = system: SW-620 colon
# [54] = system: COLO 205 colon
# [55] = system: OVCAR-3 ovarian
# [56] = system: SF-539 CNS
# [57] = system: SK-MEL-28 melanoma
# [58] = system: SN12C renal
structure (smiles),measurement,setting,value
O=C(Nc1ccc([As]=[As]c2ccc(NC(=O)c3ccccc3)cc2)cc1)c1ccccc1 (configuration not stated),GI50,[1],1510 nM
same,TGI,[1],3080 nM
same,GI50,[2],255 nM
same,TGI,[2],716 nM
same,GI50,[3],391 nM
same,TGI,[3],1480 nM
same,GI50,[4],454 nM
same,TGI,[4],1670 nM
same,GI50,[5],1440 nM
same,TGI,[5],2750 nM
same,GI50,[6],1900 nM
same,TGI,[6],3310 nM
same,GI50,[7],1170 nM
same,TGI,[7],2530 nM
same,GI50,[8],1470 nM
same,TGI,[8],2840 nM
same,GI50,[9],846 nM
same,TGI,[9],2100 nM
same,GI50,[10],1690 nM
same,TGI,[10],3120 nM
same,GI50,[11],2030 nM
same,TGI,[11],4510 nM
same,GI50,[12],466 nM
same,TGI,[12],1810 nM
same,GI50,[13],1420 nM
same,TGI,[13],3440 nM
same,GI50,[14],1240 nM
same,TGI,[14],2500 nM
same,GI50,[15],756 nM
same,TGI,[15],2250 nM
same,GI50,[16],302 nM
same,TGI,[16],1360 nM
same,GI50,[17],208 nM
same,TGI,[17],547 nM
same,GI50,[18],1180 nM
same,TGI,[18],2460 nM
same,GI50,[19],1840 nM
same,TGI,[19],3590 nM
same,GI50,[20],424 nM
same,TGI,[20],1590 nM
same,GI50,[21],74.3 nM
same,TGI,[21],217 nM
same,GI50,[22],192 nM
same,TGI,[22],499 nM
same,GI50,[23],262 nM
same,TGI,[23],786 nM
same,GI50,[24],1320 nM
same,TGI,[24],2650 nM
same,GI50,[25],136 nM
same,TGI,[25],428 nM
same,GI50,[26],1130 nM
same,TGI,[26],2490 nM
same,GI50,[27],323 nM
same,TGI,[27],1330 nM
same,GI50,[28],313 nM
same,TGI,[28],1280 nM
same,GI50,[29],662 nM
same,TGI,[29],1640 nM
same,GI50,[30],1180 nM
same,TGI,[30],2640 nM
same,GI50,[31],1150 nM
same,TGI,[31],2360 nM
same,GI50,[32],1190 nM
same,TGI,[32],2450 nM
same,GI50,[33],173 nM
same,TGI,[33],493 nM
same,GI50,[34],247 nM
same,TGI,[34],728 nM
same,GI50,[35],328 nM
same,TGI,[35],2090 nM
same,GI50,[36],975 nM
same,TGI,[36],2250 nM
same,GI50,[37],1240 nM
same,TGI,[37],2640 nM
same,GI50,[38],329 nM
same,TGI,[38],1130 nM
same,GI50,[39],339 nM
same,TGI,[39],1840 nM
same,GI50,[40],333 nM
same,TGI,[40],1220 nM
same,GI50,[41],234 nM
same,TGI,[41],624 nM
same,GI50,[42],244 nM
same,TGI,[42],1010 nM
same,GI50,[43],242 nM
same,TGI,[43],1510 nM
same,GI50,[44],184 nM
same,TGI,[44],571 nM
same,GI50,[45],215 nM
same,TGI,[45],560 nM
same,GI50,[46],582 nM
same,TGI,[46],1890 nM
same,GI50,[47],334 nM
same,TGI,[47],1010 nM
same,GI50,[48],258 nM
same,TGI,[48],751 nM
same,GI50,[49],343 nM
same,TGI,[49],1190 nM
same,GI50,[50],478 nM
same,TGI,[50],6320 nM
same,GI50,[51],734 nM
same,TGI,[51],2110 nM
same,GI50,[52],179 nM
same,TGI,[52],642 nM
same,GI50,[53],227 nM
same,TGI,[53],740 nM
same,GI50,[54],239 nM
same,TGI,[54],769 nM
same,GI50,[55],285 nM
same,TGI,[55],812 nM
same,GI50,[56],381 nM
same,TGI,[56],1530 nM
same,GI50,[57],214 nM
same,TGI,[57],531 nM
same,GI50,[58],679 nM
same,TGI,[58],1980 nM
O=S(=O)(Nc1ccc(Cl)cc1)c1ccc(-c2cnc(C3CC3)o2)cc1,GI50,[1],425 nM
same,TGI,[1],12500 nM
same,GI50,[2],659 nM
same,TGI,[2],17600 nM
same,GI50,[3],2280 nM
same,TGI,[3],16400 nM
same,GI50,[4],1670 nM
same,TGI,[4],20200 nM
same,GI50,[5],2060 nM
same,TGI,[5],15300 nM
same,GI50,[6],2070 nM
same,TGI,[6],15600 nM
same,GI50,[7],3690 nM
same,TGI,[7],17900 nM
same,GI50,[8],847 nM
same,TGI,[8],18200 nM
same,GI50,[9],768 nM
same,TGI,[9],12800 nM
same,GI50,[10],431 nM
same,TGI,[10],16200 nM
same,GI50,[11],395 nM
same,TGI,[11],7280 nM
same,GI50,[12],2640 nM
same,TGI,[12],17900 nM
same,GI50,[13],414 nM
same,TGI,[13],14400 nM
same,GI50,[14],2020 nM
same,TGI,[14],15300 nM
same,GI50,[15],637 nM
same,TGI,[15],15200 nM
same,GI50,[16],368 nM
same,TGI,[16],15100 nM
same,GI50,[17],383 nM
same,TGI,[17],15000 nM
same,GI50,[18],1000 nM
same,TGI,[18],15500 nM
same,GI50,[19],1490 nM
same,TGI,[19],22300 nM
same,GI50,[20],1850 nM
same,TGI,[20],23000 nM
same,GI50,[21],367 nM
same,TGI,[21],11100 nM
same,GI50,[22],683 nM
same,TGI,[22],4980 nM
same,GI50,[23],595 nM
same,TGI,[23],18600 nM
same,GI50,[24],410 nM
same,TGI,[24],8940 nM
same,GI50,[25],564 nM
same,TGI,[25],19900 nM
same,GI50,[26],406 nM
same,TGI,[26],16900 nM
same,GI50,[27],1670 nM
same,TGI,[27],15100 nM
same,GI50,[28],584 nM
same,TGI,[28],13700 nM
same,GI50,[29],4860 nM
same,TGI,[29],23100 nM
same,GI50,[30],2130 nM
same,TGI,[30],18800 nM
same,GI50,[31],168 nM
same,TGI,[31],732 nM
same,GI50,[32],1250 nM
same,TGI,[32],18100 nM
same,GI50,[33],860 nM
same,TGI,[33],17400 nM
same,GI50,[34],1060 nM
same,TGI,[34],22700 nM
same,GI50,[35],388 nM
same,TGI,[35],8580 nM
same,GI50,[36],1140 nM
same,TGI,[36],15500 nM
same,GI50,[37],791 nM
same,TGI,[37],18600 nM
same,GI50,[38],6490 nM
same,TGI,[38],21900 nM
same,GI50,[39],786 nM
same,TGI,[39],41300 nM
same,GI50,[40],2540 nM
same,TGI,[40],22400 nM
same,GI50,[41],413 nM
same,TGI,[41],15900 nM
same,GI50,[42],8360 nM
same,TGI,[42],28800 nM
same,GI50,[43],191 nM
same,TGI,[43],1540 nM
same,GI50,[44],743 nM
same,TGI,[44],20300 nM
same,GI50,[45],353 nM
same,TGI,[45],> 75000 nM
same,GI50,[46],586 nM
same,TGI,[46],16500 nM
same,GI50,[47],766 nM
same,TGI,[47],21200 nM
same,GI50,[48],210 nM
same,TGI,[48],28500 nM
same,GI50,[49],637 nM
same,TGI,[49],21400 nM
same,GI50,[50],372 nM
same,TGI,[50],6860 nM
same,GI50,[51],150 nM
same,TGI,[51],511 nM
same,GI50,[52],1810 nM
same,TGI,[52],18100 nM
same,GI50,[53],378 nM
same,TGI,[53],14000 nM
same,GI50,[54],1270 nM
same,TGI,[54],10000 nM
same,GI50,[55],372 nM
same,TGI,[55],3730 nM
same,GI50,[56],513 nM
same,TGI,[56],3430 nM
same,GI50,[57],5720 nM
same,TGI,[57],21900 nM
same,GI50,[58],1090 nM
same,TGI,[58],19500 nM
